Measurements from patent US20120177693A1, “DEEP LUNG PULMONARY DELIVERY OF TREPROSTINIL” (Aradigm Corporation, priority 2008, published 2012).

Assay: Venous plasma pharmacokinetics of inhaled treprostinil via AERx Essence or Nebu-Tec Optineb, 14 healthy male subjects
Protocol: On each of two dosing days, eligible subjects underwent dosing with ^99mTc-labeled treprostinil sodium using either the AERx Essence System or the Nebu-Tec Optineb nebulizer. Following their initial study dose, subjects underwent a washout period of approximately 48 hours before completing a second (crossover) study dose.
Immediately following each study dose, subjects underwent gamma scintigraphy and multiple samplings of venous blood to characterize treprostinil lung deposition and plasma pharmacokinetics.
To evaluate treprostinil plasma pharmacokinetics, 16 venous blood samples were drawn into 7.5 ml Potassium EDTA monovette tubes following each study dose (i.e., Essence and Optineb). Sampling occurred approximately 1 hour prior to dosing and at +2, +3, +5, +7, +10, +15, +20, +30, +60, +90, +120, +180, +240, +300, and +360 minutes after the start of each study dose. Thus, a total of 32 blood samples (˜250 mL) were collected for pharmacokinetic assessment over the two dosing days. Immediately upon sampling the sample was identified with a bar coded label bearing details of study number, subject number, sampling time point, sample type and a unique 9 digit identification number. The sample was separated by centrifugation at 1500×g and 4° C. for 10 minutes. Two equal aliquots of plasma/serum were transferred to 2 polypropylene tubes labelled identically to the original blood sample and stored at approximately −20° C. pending analysis. The time at which samples were taken, received into the separating room and placed in the freezer was recorded in the study documentation.
The pharmacokinetic parameters Cmax, AUCT and AUCI were normalised for the dose delivered to the lung, as determined from the scintigraphy data (Tables 14.2.1.5 & 14.2.1.6).

[1] = dose-normalised for the calculated dose to lung
[2] = via AERx, Geometric LS means, dose-normalised for the calculated dose to lung (μg)
[3] = via AERx, Mean, normalised for dose to lung

CCCCC[C@H](O)CC[C@@H]1[C@H]2Cc3cccc(OCC(=O)[O-])c3C[C@H]2C[C@H]1O.[Na+] [treprostinil, (1R,2R,3aS,9aS)-[[2,3,3a,4,9,9a-Hexahydro-2-hydroxyl-1-[(3S)-3-hydroxyoctyl]-1H-benz[f]inden-5-yl]oxy]acetic acid monosodium salt]
Tmax, Median Diff. AERx vs Nebu-Tec (Wilcoxon Matched Pairs Test): 11.5 min
Dose-normalised AUCI, AERx/Nebu-Tec Ratio of geometric LS means [1]: 101.79%
Dose-normalised AUCT, AERx/Nebu-Tec Ratio of geometric LS means [1]: 103.24%
Dose-normalised Cmax, AERx/Nebu-Tec Ratio of geometric LS means (dose-normalised for the calculated dose to lung, monosodium salt): 61.51%
Tmax (human, plasma, inhaled, Tmax, one subject in the nebulizer arm with delayed Tmax): ~20 min
AUC (male, human, plasma, inhaled, 19.58 μg): 0.53 ng·h/mL
AUC(0-inf) (male, human, plasma, inhaled, 19.58 μg, AUCINF—obs, via Optineb, GM): 0.533 ng·h/mL
AUC(0-inf) (male, human, plasma, inhaled, 19.58 μg, AUCINF—obs, via Optineb, Median): 0.546 ng·h/mL
AUC(0-t) (male, human, plasma, inhaled, 19.58 μg, AUCT, via Nebu-Tec, Geometric LS means): 0.51 ng·h/mL
AUC(0-t) (male, human, plasma, inhaled, 19.58 μg, AUClast, via Optineb, GM): 0.51 ng·h/mL
AUC(0-t) (male, human, plasma, inhaled, 19.58 μg, AUClast, via Optineb, Median): 0.531 ng·h/mL
Cmax (male, human, plasma, inhaled, 19.58 μg, Cmax, via Nebu-Tec, Geometric LS means): 0.71 ng/mL
Cmax (male, human, plasma, inhaled, 19.58 μg, Cmax, via Optineb, GM (geometric mean)): 0.707 ng/mL
Cmax (male, human, plasma, inhaled, 19.58 μg, Cmax, via Optineb, Median): 0.696 ng/mL
half-life (male, human, plasma, inhaled, 19.58 μg, T1/2, via Optineb, GM): 38.5 min
half-life (male, human, plasma, inhaled, 19.58 μg, T1/2, via Optineb, Median): 37.3 min
Tmax (male, human, plasma, inhaled, 19.58 μg, Tmax, via Nebu-Tec, Median): 8.5 min
Tmax (male, human, plasma, inhaled, 19.58 μg, Tmax, via Optineb, Median): 8.52 min
AUC(0-inf) (male, human, plasma, inhaled, 26 μg, AUCINF—obs, via AERx, GM): 0.731 ng·h/mL
AUC(0-inf) (male, human, plasma, inhaled, 26 μg, AUCINF—obs, via AERx, Median): 0.767 ng·h/mL
AUC(0-t) (male, human, plasma, inhaled, 26 μg, AUClast, via AERx, GM): 0.709 ng·h/mL
AUC(0-t) (male, human, plasma, inhaled, 26 μg, AUClast, via AERx, Median): 0.749 ng·h/mL
Cmax (male, human, plasma, inhaled, 26 μg, Cmax, via AERx, GM (geometric mean)): 0.586 ng/mL
Cmax (male, human, plasma, inhaled, 26 μg, Cmax, via AERx, Median): 0.548 ng/mL
half-life (male, human, plasma, inhaled, 26 μg, T1/2, via AERx, GM): 46.3 min
half-life (male, human, plasma, inhaled, 26 μg, T1/2, via AERx, Median): 43.6 min
Tmax (male, human, plasma, inhaled, 26 μg, Tmax, via AERx, Median): 25 min
AUC (male, human, plasma, inhaled, 26.07 μg): 0.73 ng·h/mL
AUC(0-t) (male, human, plasma, inhaled, 26.07 μg, AUCT, via AERx, Geometric LS means): 0.71 ng·h/mL
Cmax (male, human, plasma, inhaled, 26.07 μg, Cmax, via AERx, Geometric LS means): 0.59 ng/mL
Tmax (male, human, plasma, inhaled, 26.07 μg, Tmax, via AERx, Median): 25 min
Vd/F (male, human, plasma, inhaled, 2 AERx strips): 44 L
AUC(0-inf) (male, human, plasma, inhaled, 2 AERx strips, AUCINF—obs (AUCI), via AERx, Mean): 0.762 ng·h/mL
AUC(0-t) (male, human, plasma, inhaled, 2 AERx strips, AUClast (AUCT), via AERx, Mean): 0.742 ng·h/mL
Cmax (male, human, plasma, inhaled, 2 AERx strips, Cmax, via AERx, Mean): 0.64 ng/mL
half-life (male, human, plasma, inhaled, 2 AERx strips, T1/2 (elimination half life), via AERx, Mean): 52.2 min
Tmax (male, human, plasma, inhaled, 2 AERx strips, Tmax, via AERx, Mean): 20.6 min
Vd/F (male, human, plasma, inhaled, 6 puffs): 36 L
AUC(0-inf) (male, human, plasma, inhaled, 6 puffs, AUCINF—obs (AUCI), via Optineb, Mean): 0.553 ng·h/mL
AUC(0-t) (male, human, plasma, inhaled, 6 puffs, AUClast (AUCT), via Optineb, Mean): 0.531 ng·h/mL
Cmax (male, human, plasma, inhaled, 6 puffs, Cmax, via Optineb, Mean): 0.762 ng/mL
half-life (male, human, plasma, inhaled, 6 puffs, T1/2 (elimination half life), via Optineb, Mean): 40.1 min
Tmax (male, human, plasma, inhaled, 6 puffs, Tmax, via Optineb, Mean): 8.94 min
Tmax (male, human, plasma, inhaled, TMAX, via AERx Essence System, mean): 21 min
Tmax (male, human, plasma, inhaled, TMAX, via nebulizer (Nebu-Tec OPTINEB), mean): 9 min
AUCI, AERx/Nebu-Tec Ratio of geometric LS means (not dose adjusted): 137.15%
AUCT, AERx/Nebu-Tec Ratio of geometric LS means (not dose adjusted): 139.11%
Cmax, AERx/Nebu-Tec Ratio of geometric LS means (not dose adjusted): 82.88%
Cmax_D (via AERx, GM): 0.023 ng/mL/µg
Vz_F_obs (via AERx, GM): 38614.996 mL
Dose-normalised AUCI [2]: 0.029 ng·h/mL
Dose-normalised AUCT [2]: 0.028 ng·h/mL
Dose-normalised Cmax [2]: 0.023 ng/mL
AUCINF—obs (via AERx, Max): 1.205 ng·h/mL
AUClast (via AERx, Max): 1.196 ng·h/mL
Cmax (via AERx, Max): 1.347 ng/mL
Cmax_D (via AERx, Max): 0.044 ng/mL/µg
T1/2 (via AERx, Max): 163.9 min
Tmax (via AERx, Max): 30 min
Vz_F_obs (via AERx, Max): 133550.416 mL
AUCINF_obs_D (dose normalised AUCI) [3]: 0.029 ng·h/mL/µg
AUClast_D (dose normalised AUCT) [3]: 0.028 ng·h/mL/µg
Cmax_D (dose normalised Cmax) [3]: 0.024 ng/mL/µg
Cmax_D (via AERx, Median): 0.022 ng/mL/µg
Vz_F_obs (via AERx, Median): 34319.392 mL
AUCINF—obs (via AERx, Min): 0.407 ng·h/mL
AUClast (via AERx, Min): 0.375 ng·h/mL
Cmax (via AERx, Min): 0.299 ng/mL
Cmax_D (via AERx, Min): 0.016 ng/mL/µg
T1/2 (via AERx, Min): 28.3 min
